A short description of data set [1]: E → Z photo-isomerisation with LEDs / photo-stationary state (PSS) determination. The data set is classed as physicochemical. The note with it: under irradiation. On the procedure:
The E → Z photo-isomerisation and half-life for the Z → E thermal isomerisation was evaluated for all derivatives (Fig. 7 and Table 1, see ESI ^† for original data). To our surprise, the half-lives for (Z)-X2,m-Y2 derivatives were in the order of hours to days for X = F and Cl: the effect of the meta group was not as drastic as anticipated. We typically observed a ∼4 fold decrease in half-life by substituting H with OMe, and a further 3-fold drop from OMe to NMe2 for X = F, Cl and SEt. The nature of the ortho-substituent appeared to be the main influence on τ1/2 (F > Cl ≫ SEt). However, these predictable trends observed for the meta-substitution allow for precise tuning of thermal half-lives. The photo-stationary states (PSSs) of these derivatives ranged from 48–77% Z isomer (Table 1).
Remarkably, it was possible to photo-switch the tetra-iodo derivative I4-ester using near-IR light (730 nm) (Fig. 8C). […] Photo-isomerisation was not detected for the ortho-telluro derivatives. This is consistent with findings by Haberhauer and co-workers, who propose that the strong chalcogen bonds in the E isomer of a PhTe-substituted azobenzene lead to dramatic energy differences between the E and Z isomers, which suppresses photoswitching.[43] The photo-stationary states of the halogen X4 derivatives range from 50–84% (Table 1) and could also be determined for the slower relaxing chalcogen derivatives (PSS 46–95%, see Fig. S308–S323 ^† for original data).
All UV-vis spectra were determined in DMSO solution. Extinction coefficients were determined by recording a UV-vis spectra for the E isomer at 10, 20, 30, 40 µM in DMSO respectively. The absorbance at the maximum of the π - π* transition of the E‐isomers was plotted against concentration (Beer-Lambert plot) to determine the molar extinction coefficient ε. For each slow relaxing compound, the E isomer sample at 40 µM was irradiated with the appropriate wavelength of light to generate the photo-stationary state, and another spectrum was run. This spectrum was normalised to units of ε and overlaid with the dark (100% E isomer) spectrum. […]

Data set [2] is described as follows: UV-vis spectra of the E isomers (n → π* absorption maximum). The class given is physicochemical. The note with it: E isomer, DMSO. From the text: The UV-vis spectra of the (E)-X4 derivatives and (E)-X2,m-Y2 are shown in Fig. 3 (analogous spectra for the Z isomers, and deconvoluted spectra are available in the ESI ^†). […] The n → π* transition maximum, λmax, typically followed the order meta-H > –NMe2 > –OMe and ortho-S > Cl > F. It is clear from these experiments that the four ortho X substituents in the X4 derivatives are essential for achieving the deeply red-shifted tails which allows for red/near-IR triggered photo-isomerisation.
All UV-vis spectra were determined in DMSO solution. Extinction coefficients were determined by recording a UV-vis spectra for the E isomer at 10, 20, 30, 40 µM in DMSO respectively. The absorbance at the maximum of the π - π* transition of the E‐isomers was plotted against concentration (Beer-Lambert plot) to determine the molar extinction coefficient ε. For each slow relaxing compound, the E isomer sample at 40 µM was irradiated with the appropriate wavelength of light to generate the photo-stationary state, and another spectrum was run. This spectrum was normalised to units of ε and overlaid with the dark (100% E isomer) spectrum.

Data on three compounds can be found in paper PMC9555560, “Fast relaxing red and near-IR switchable azobenzenes with chalcogen and halogen substituents: periodic trends, tuneable thermal half-lives and chalcogen bonding” (Chemical Science, 2022).

As to `COc1cc(CNC(=O)OC(C)(C)C)c(OC)c(F)c1/N=N/c1c(OC)cc(CNC(=O)OC(C)(C)C)c(OC)c1F` [(OMe)2F2,m-OMe2-NHBoc], in data set [1], the Stability to light result is “unstable to light”. The “λ max of n → π* transition” value in data set [2] was 425.4 nm.

As to `CCSc1cc(CNC(=O)OC(C)(C)C)c(OC)c(SCC)c1/N=N/c1c(SCC)cc(CNC(=O)OC(C)(C)C)c(OC)c1SCC` [(SEt)4,m-OMe2-NHBoc], the Stability to light result in data set [1] was “unstable to light”. Besides, the “λ max of n → π* transition” value in data set [2] is 512.9 nm.

On to `COc1cc(/N=N/c2cc(OC)c(CNC(=O)OC(C)(C)C)cc2OC)c(OC)cc1CNC(=O)OC(C)(C)C` [OMe2,m-OMe2], for which the Stability to light result in data set [1] is “unstable to light”. In data set [2], the “λ max of n → π* transition” value is 426.6 nm.
